Broadly, the Ki is a measure of affinity in units of concentration, obtained from inhibition or displacement. Low readings indicate higher affinity, high ones lower affinity.

This is an account of results in patent US6004976A, “Thrombin inhibitors” (Merck & Co., Inc., priority 1998, dated 1999).

This test addresses T1, human α-thrombin (Homo sapiens, UniProt P00734).
T1 construct: human α-thrombin
The test can be described thus: In vitro assay for determining proteinase inhibition (thrombin). In kind it is biochemical. The conditions noted are these: 25° C., 0.05 M TRIS buffer pH 7.4, 0.15 M NaCl, 0.1% PEG. The procedure:
In Vitro Assay for Determining Proteinase Inhibition
Assays of human α-thrombin and human trypsin were performed at 25° C. in 0.05 M TRIS buffer pH 7.4, 0.15 M NaCl, 0.1% PEG. Trypsin assays also contained 1 mM CaCl2.
In assays wherein rates of hydrolysis of a p-nitroanilide (pna) substrate were determined, a Thermomax 96-well plate reader was used to measure (at 405 nm) the time dependent appearance of p-nitroaniline. sar-PR-pna (sarcosine-Pro-Arg-p-nitroanilide) was used to assay human α-thrombin (Km=125 μM) and human trypsin (Km=59 μM). p-Nitroanilide substrate concentration was determined from measurements of absorbance at 342 nm using an extinction coefficient of 8270 cm-1M-1.
In certain studies with potent inhibitors (Ki<10 nM) where the degree of inhibition of thrombin was high, a more sensitive activity assay was employed. In this assay the rate of thrombin catalyzed hydrolysis of the fluorogenic substrate Z-GPR-afc (Cbz-Gly-Pro-Arg-7-amino-4-trifluoromethylcoumarin) (Km=27 μM) was determined from the increase in fluorescence at 500 nm (excitation at 400 nm) associated with production of 7-amino-4-trifluoromethyl coumarin. Concentrations of stock solutions of Z-GPR-afc were determined from measurements of absorbance at 380 nm of the 7-amino-4-trifluoromethyl coumarin produced upon complete hydrolysis of an aliquot of the stock solution by thrombin.
Activity assays were performed by diluting a stock solution of substrate at least tenfold to a final concentration≤0.5 Km into a solution containing enzyme or enzyme equilibrated with inhibitor. Times required to achieve equilibration between enzyme and inhibitor were determined in control experiments. Initial velocities of product formation in the absence (Vo) or presence of inhibitor (Vi) were measured. Assuming competitive inhibition, and that unity is negligible compared Km/[S], [I]/e, and [I]/e (where [S], [I], and e respectively represent the total concentrations, of substrate, inhibitor and enzyme), the equilibrium constant (Ki) for dissociation of the inhibitor from the enzyme can be obtained from the dependence of Vo/Vi on [I] shown in equation 1.

Some results are limits rather than exact numbers.

Consider `Cc1nc(N)ccc1CNC(=O)Cn1c(C)cc2c([nH]c(=O)n2CCc2ccccc2)c1=O`, for which the Ki was below 10 nM. On to `Cc1nc(N)ccc1CNC(=O)Cn1c(C)cc2c([nH]c(=O)n2CCc2ccccn2)c1=O`, for which the Ki is below 10 nM. `Cc1nc(N)ccc1CNC(=O)Cn1c(C)cc2c([nH]c(=O)n2CC2CCCCC2)c1=O` returned a Ki above 10 nM.

As for `Cc1nc(N)ccc1CNC(=O)Cn1c(C)cc2c([nH]c(=O)n2CCC(C)(C)C)c1=O`, the Ki is above 10 nM.

`Cc1nc(N)ccc1CNC(=O)Cn1c(C)cc2c([nH]c(=O)n2[C@H](C)c2ccccc2)c1=O` gave a Ki above 10 nM. Turning to `Cc1nc(N)ccc1CNC(=O)Cn1c(C)cc2c([nH]c(=O)n2CC2CC2)c1=O`, the inhibitory constant (Ki) is above 10 nM. Take `Cc1nc(N)ccc1CNC(=O)Cn1c(C)cc2c([nH]c(=O)n2CCC(C)C)c1=O`: the Ki was below 10 nM. The same measure for `Cc1cc2c([nH]c(=O)n2CCC(C)C)c(=O)n1CC(=O)NCc1ccccc1OCC(=O)NC1CC1`: above 10 nM.
